pIC50: −log10 of the molar value.
Each molecule was assayed against human kinase Mps-1 (Homo sapiens (Human), UniProt P33981) (assay: Mps-1 kinase assay (TR-FRET)). Settings: N-terminally GST-tagged human full length recombinant Mps-1; 10 μM ATP; 1 μM biotinylated peptide substrate; read-out: Mps1 IC50.
Type: biochemical
Method in brief: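 GST-Mps-1 (full length, N-term tag) ~1 nM final, linear-range adjusted per lot; biotinylated peptide substrate. Detection: Eu-anti-pSer/Thr donor → SA-XLent acceptor TR-FRET, 1 h, 22° C. Inhibition of kinase activity.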

Sequence of human kinase Mps-1 (P33981 whole entry): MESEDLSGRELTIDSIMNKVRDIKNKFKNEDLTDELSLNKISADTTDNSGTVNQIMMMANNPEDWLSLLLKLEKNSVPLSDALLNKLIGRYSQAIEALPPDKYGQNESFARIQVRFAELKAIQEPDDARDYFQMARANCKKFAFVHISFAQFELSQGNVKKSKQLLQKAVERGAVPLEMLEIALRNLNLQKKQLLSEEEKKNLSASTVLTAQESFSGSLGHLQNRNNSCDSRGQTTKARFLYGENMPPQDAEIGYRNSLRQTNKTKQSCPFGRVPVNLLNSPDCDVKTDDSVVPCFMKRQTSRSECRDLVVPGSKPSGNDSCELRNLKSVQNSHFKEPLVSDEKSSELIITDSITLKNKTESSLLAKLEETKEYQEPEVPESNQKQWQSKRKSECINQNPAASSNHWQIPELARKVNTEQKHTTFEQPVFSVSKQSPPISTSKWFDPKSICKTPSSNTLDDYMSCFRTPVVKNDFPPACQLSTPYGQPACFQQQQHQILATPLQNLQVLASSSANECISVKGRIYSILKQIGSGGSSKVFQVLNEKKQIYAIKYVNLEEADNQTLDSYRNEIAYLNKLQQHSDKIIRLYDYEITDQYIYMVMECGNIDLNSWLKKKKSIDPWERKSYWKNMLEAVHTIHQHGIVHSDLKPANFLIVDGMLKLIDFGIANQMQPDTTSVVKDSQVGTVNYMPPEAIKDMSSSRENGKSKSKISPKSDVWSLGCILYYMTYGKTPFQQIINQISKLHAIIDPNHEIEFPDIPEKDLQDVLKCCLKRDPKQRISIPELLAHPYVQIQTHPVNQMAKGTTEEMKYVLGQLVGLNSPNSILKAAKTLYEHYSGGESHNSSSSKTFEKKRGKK

Row | Compound | pIC50
1 | CNC(=O)c1ccc(-n2cnc3c(NCCC(F)(F)F)cc(Oc4cccc(OC)c4)cc32)cc1C [Example 68, 4-{6-(3-methoxyphenoxy)-4-[(3,3,3-trifluoropropyl)amino]-1H-benzimidazol-1-yl}-N, 2-dimethylbenzamide] | 8.06
2 | CCNC(=O)c1ccc(-n2cnc3c(NCCC(F)(F)F)cc(Oc4cccc(OC)c4)cc32)cc1C [Example 69, N-ethyl-4-{6-(3-methoxyphenoxy)-4-[(3,3,3-trifluoropropyl)amino]-1H-benzimidazol-1-yl}-2-methylbenzamide] | 7.59
3 | COc1cccc(Oc2cc(NCCC(F)(F)F)c3ncn(-c4ccc(C(=O)NC5CC5)c(C)c4)c3c2)c1 [Example 70, N-cyclopropyl-4-{6-(3-methoxyphenoxy)-4-[(3,3,3-trifluoropropyl)amino]-1H-benzimidazol-1-yl}-2-methylbenzamide] | 8.70
4 | CCNC(=O)c1ccc(-n2cnc3c(NCCC(F)(F)F)cc(Oc4cccc(F)c4OC)cc32)cc1C [Example 71, N-ethyl-4-{6-(3-fluoro-2-methoxyphenoxy)-4-[(3,3,3-trifluoropropyl)amino]-1H-benzimidazol-1-yl}-2-methylbenzamide] | 7.55
5 | CNC(=O)c1ccc(-n2cnc3c(NCCC(F)(F)F)cc(Oc4cccc(F)c4OC)cc32)cc1C [Example 72, 4-{6-(3-fluoro-2-methoxyphenoxy)-4-[(3,3,3-trifluoropropyl)amino]-1H-benzimidazol-1-yl}-N,2-dimethylbenzamide] | 7.48
6 | COc1cc(C#N)ccc1Oc1cc(NCCC(F)(F)F)c2ncn(-c3ccc(C(=O)NC4CC4)c(C)c3)c2c1 [Example 73, 4-{6-(4-cyano-2-methoxyphenoxy)-4-[(3,3,3-trifluoropropyl)amino]-1H-benzimidazol-1-yl}-N-cyclopropyl-2-methylbenzamide] | 7.28
7 | Cc1cc(-n2cnc3c(NCCC(F)(F)F)cc(Oc4ccc(S(C)(=O)=O)cc4)cc32)ccc1C(=O)NC1CC1 [Example 74, N-cyclopropyl-2-methyl-4-{6-[4-(methylsulfonyl)phenoxy]-4-[(3,3,3-trifluoropropyl)amino]-1H-benzimidazol-1-yl}benzamide] | 8.19
8 | Cc1cc(-n2cnc3c(NCCC(F)(F)F)cc(Oc4ccc(-c5ncco5)cc4)cc32)ccc1C(=O)NC1CC1 [Example 75, N-cyclopropyl-2-methyl-4-{6-[4-(1,3-oxazol-2-yl)phenoxy]-4-[(3,3,3-trifluoropropyl)amino]-1H-benzimidazol-1-yl}benzamide] | 7.66
9 | Cc1cc(-n2cnc3c(NCCC(F)(F)F)cc(Oc4ccc(F)c(C(F)(F)F)c4)cc32)ccc1C(=O)NC1CC1 [Example 76, N-cyclopropyl-4-{6-[4-fluoro-3-(trifluoromethyl)phenoxy]-4-[(3,3,3-trifluoropropyl)amino]-1H-benzimidazol-1-yl}-2-methylbenzamide] | 8.14
10 | Cc1cc(-n2cnc3c(NCCC(F)(F)F)cc(Oc4cccc(C#N)c4)cc32)ccc1C(=O)NC1CC1 [Example 77, 4-{6-(3-cyanophenoxy)-4-[(3,3,3-trifluoropropyl)amino]-1H-benzimidazol-1-yl}-N-cyclopropyl-2-methylbenzamide] | 9.00
11 | Cc1cc(-n2cnc3c(NCCC(F)(F)F)cc(Oc4ccc(-n5cncn5)cc4)cc32)ccc1C(=O)NC1CC1 [Example 78, N-cyclopropyl-2-methyl-4-{6-[4-(1H-1,2,4-triazol-1-yl)phenoxy]-4-[(3,3,3-trifluoropropyl)amino]-1H-benzimidazol-1-yl}benzamide] | 7.96
12 | Cc1cc(-n2cnc3c(NCCC(F)(F)F)cc(Oc4cccc(C(=O)NC5CC5)c4)cc32)ccc1C(=O)NC1CC1 [Example 79, N-cyclopropyl-4-{6-[3-(cyclopropylcarbamoyl)phenoxy]-4-[(3,3,3-trifluoropropyl)amino]-1H-benzimidazol-1-yl}-2-methylbenzamide] | 8.41
13 | Cc1cc(-n2cnc3c(NCCC(F)(F)F)cc(Nc4ccccc4O)cc32)ccc1C(=O)NC1CC1 [Example 82, N-cyclopropyl-4-{6-[(2-hydroxyphenyl)amino]-4-[(3,3,3-trifluoropropyl)amino]-1H-benzimidazol-1-yl}-2-methylbenzamide] | 8.41
14 | Cc1cc(-n2cnc3c(NCCC(F)(F)F)cc(Oc4ccc(O)c(F)c4)cc32)ccc1C(=O)NC1CC1 [Example 83, N-cyclopropyl-4-{6-(3-fluoro-4-hydroxyphenoxy)-4-[(3,3,3-trifluoropropyl)amino]-1H-benzimidazol-1-yl}-2-methylbenzamide] | 9.15
15 | CNC(=O)c1ccc(-n2cnc3c(NCC4CCOCC4)cc(Oc4cccc(F)c4F)cc32)cc1C [Example 84, 4-{6-(2,3-difluorophenoxy)-4-[(tetrahydro-2H-pyran-4-ylmethyl)amino]-1H-benzimidazol-1-yl}-N,2-dimethylbenzamide] | 8.47
16 | CCNC(=O)c1ccc(-n2cnc3c(NCC4CCOCC4)cc(Oc4cccc(F)c4F)cc32)cc1C [Example 85, 4-{6-(2,3-Difluorophenoxy)-4-[(tetrahydro-2H-pyran-4-ylmethyl)amino]-1H-benzimidazol-1-yl}-N-ethyl-2-methylbenzamide] | 8.48

Row | Compound | pIC50
17 | CNC(=O)c1ccc(-n2cnc3c(NCC4CCOCC4)cc(Oc4ccc(OC)cc4F)cc32)cc1C [Example 86, 4-{6-(2-fluoro-4-methoxyphenoxy)-4-[(tetrahydro-2H-pyran-4-ylmethyl)amino]-1H-benzimidazol-1-yl}-N,2-dimethylbenzamide] | 8.15
18 | CCNC(=O)c1ccc(-n2cnc3c(NCC4CCOCC4)cc(Oc4ccc(OC)cc4F)cc32)cc1C [Example 87, N-ethyl-4-{6-(2-fluoro-4-methoxyphenoxy)-4-[(tetrahydro-2H-pyran-4-ylmethyl)amino]-1H-benzimidazol-1-yl}-2-methylbenzamide] | 7.94
19 | CNC(=O)c1ccc(-n2cnc3c(NCCC(F)(F)F)cc(Oc4ccc(OC)cc4F)cc32)cc1C [Example 88, 4-{6-(2-fluoro-4-methoxyphenoxy)-4-[(3,3,3-trifluoropropyl)amino]-1H-benzimidazol-1-yl}-N,2-dimethylbenzamide] | 8.17
20 | CCNC(=O)c1ccc(-n2cnc3c(NCCC(F)(F)F)cc(Oc4ccc(OC)cc4F)cc32)cc1C [Example 89, N-ethyl-4-{6-(2-fluoro-4-methoxyphenoxy)-4-[(3,3,3-trifluoropropyl)amino]-1H-benzimidazol-1-yl}-2-methylbenzamide] | 7.97
21 | Cc1cc(-n2cnc3c(NCCC(F)(F)F)cc(Oc4ccc(O)cc4F)cc32)ccc1C(=O)NC1CC1 [Example 90, N-cyclopropyl-4-{6-(2-fluoro-4-hydroxyphenoxy)-4-[(3,3,3-trifluoropropyl)amino]-1H-benzimidazol-1-yl}-2-methylbenzamide] | 8.96
22 | Cc1cc(-n2cnc3c(NCCC(F)(F)F)cc(Oc4cccc(F)c4O)cc32)ccc1C(=O)NC1CC1 [Example 91, N-cyclopropyl-4-{6-(3-fluoro-2-hydroxyphenoxy)-4-[(3,3,3-trifluoropropyl)amino]-1H-benzimidazol-1-yl}-2-methylbenzamide] | 9.40
23 | CNC(=O)c1ccc(-n2cnc3c(NCCC(F)(F)F)cc(Oc4cccc(F)c4O)cc32)cc1C [Example 92, 4-{6-(3-fluoro-2-hydroxyphenoxy)-4-[(3,3,3-trifluoropropyl)amino]-1H-benzimidazol-1-yl}-N,2-dimethylbenzamide] | 8.52
24 | CCNC(=O)c1ccc(-n2cnc3c(NCCC(F)(F)F)cc(Oc4cccc(F)c4O)cc32)cc1C [Example 93, N-ethyl-4-{6-(3-fluoro-2-hydroxyphenoxy)-4-[(3,3,3-trifluoropropyl)amino]-1H-benzimidazol-1-yl}-2-methylbenzamide] | 8.39
25 | CNC(=O)c1ccc(-n2cnc3c(NCCC(F)(F)F)cc(Oc4cccc(O)c4)cc32)cc1C [Example 94, 4-{6-(3-hydroxyphenoxy)-4-[(3,3,3-trifluoropropyl)amino]-1H-benzimidazol-1-yl}-N,2-dimethylbenzamide] | 8.51
26 | CCNC(=O)c1ccc(-n2cnc3c(NCCC(F)(F)F)cc(Oc4cccc(O)c4)cc32)cc1C [Example 95, N-ethyl-4-{6-(3-hydroxyphenoxy)-4-[(3,3,3-trifluoropropyl)amino]-1H-benzimidazol-1-yl}-2-methylbenzamide] | 8.25
27 | Cc1cc(-n2cnc3c(NCCC(F)(F)F)cc(Oc4cccc(S(F)(F)(F)(F)F)c4)cc32)ccc1C(=O)NC1CC1 [Example 96, N-cyclopropyl-2-methyl-4-{6-[3-(pentafluoro-lambda^6-sulfanyl)phenoxy]-4-[(3,3,3-trifluoropropyl)amino]-1H-benzimidazol-1-yl}benzamide] | 8.32
28 | CNC(=O)c1ccc(-n2cnc3c(NCCC(F)(F)F)cc(Oc4ccc(O)cc4F)cc32)cc1C [Example 97, 4-{6-(2-fluoro-4-hydroxyphenoxy)-4-[(3,3,3-trifluoropropyl)amino]-1H-benzimidazol-1-yl}-N,2-dimethylbenzamide] | 8.34
29 | CCNC(=O)c1ccc(-n2cnc3c(NCCC(F)(F)F)cc(Oc4ccc(O)cc4F)cc32)cc1C [Example 98, N-ethyl-4-{6-(2-fluoro-4-hydroxyphenoxy)-4-[(3,3,3-trifluoropropyl)amino]-1H-benzimidazol-1-yl}-2-methylbenzamide] | 8.34
30 | CNC(=O)c1ccc(-n2cnc3c(NCCC(F)(F)F)cc(Oc4ccc(O)c(F)c4)cc32)cc1C [Example 99, 4-{6-(3-fluoro-4-hydroxyphenoxy)-4-[(3,3,3-trifluoropropyl)amino]-1H-benzimidazol-1-yl}-N,2-dimethylbenzamide] | 8.62
31 | CCNC(=O)c1ccc(-n2cnc3c(NCCC(F)(F)F)cc(Oc4ccc(O)c(F)c4)cc32)cc1C [Example 100, N-ethyl-4-{6-(3-fluoro-4-hydroxyphenoxy)-4-[(3,3,3-trifluoropropyl)amino]-1H-benzimidazol-1-yl}-2-methylbenzamide] | 8.47

Reference: patent US9388140B2, “Substituted benzimidazoles” (priority 2011, dated 2016)
